Test results reported in PMC11788587, “Validating Low‐Dose Iohexol as a Marker for Glomerular Filtration Rate by In Vitro and In Vivo Studies” (Clinical and Translational Science, 2025).
Like-named read-outs stand apart in the source and are kept apart here.

Test: Clinical trial in healthy volunteers, population pharmacokinetic analysis;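 also: population pharmacokinetic parameters fitted to plasma and urine data, interindividual variability modelled exponentially, inter-occasion variability tied additively, sensitivity analysis compares alternative models omitting data from one subject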
Type: in vivo, human
[1] = Model 1: excluding samples within 45 minutes after the test dose for the subject with delayed absorption
[2] = Model 2: excluding all data from the subject with delayed absorption when receiving the test dose
[3] = final model, entire dataset, n=12
[4] = final model, nonparametric bootstrap
[5] = one subject, test dose period with suspected paravenous administration, model with absorption phase

Description: After establishing a reasonable structural model, the impact of dose‐related effects was assessed as a categorical covariate on PK parameters through forward and backward selection processes. Model improvement was evaluated using the change in the objective function value (ΔOFV), with significance levels of 0.05 (ΔOFV ≤ −3.84) and 0.01 (ΔOFV ≤ −6.63). The stability and performance of the final model were evaluated graphically and statistically, using goodness‐of‐fit plots, nonparametric bootstrap analysis [32], and the visual predictive check (VPC) technique [33], as described earlier [28].
Interindividual variability was estimated for CLR, V1, V2, and V3 using an exponential model. Inter‐occasion variability for CLR, V1, and Q2 was linked to inter‐individual variability through an additive model. The residual variability in plasma and urine data was best described by proportional error models.
To evaluate its impact on the final parameter estimates, we used two approaches: (i) conducting a sensitivity analysis by comparing parameter estimates across three models—the final model, a model excluding early post-dose plasma samples from the subject, and a model excluding all data from this period for the subject.

With `CC(=O)N(CC(O)CO)c1c(I)c(C(=O)NCC(O)CO)c(I)c(C(=O)NCC(O)CO)c1I` (stereo not drawn) [iohexol] the “Effect of dose level (categorical covariate) on PK parameters” value (259 mg vs 3235 mg) was “did not differ significantly”, the “Inter-individual variability CLR estimate” value (Model 1) was 14.4 CV% and the “Inter-individual variability V1 estimate” value (Model 1) was 16.8 CV%. The “Inter-individual variability V2 estimate” value (Model 1) was 15.1 CV%, the “Inter-individual variability V3 estimate” value (Model 1) was 15.0 CV% and the “Inter-occasion variability CLR estimate” value (Model 1) was 3.69 CV%. The “Inter-occasion variability Q2 estimate” value (Model 1) was 23.7 CV%, the “Inter-occasion variability V1 estimate” value (Model 1) was 4.82 CV% and the Q1 estimate [1] was 0.219 L/h. The Q2 estimate [1] was 5.53 L/h, the V1 estimate [1] was 8.91 L and the V2 estimate [1] was 1.54 L. For the same compound, the V3 estimate [1] was 4.30 L, the “Inter-individual variability CLR estimate” value (Model 2) was 14.2 CV% and the “Inter-individual variability V1 estimate” value (Model 2) was 17.2 CV%. For the same compound, the “Inter-individual variability V2 estimate” value (Model 2) was 13.8 CV%, the “Inter-individual variability V3 estimate” value (Model 2) was 13.5 CV% and the “Inter-occasion variability CLR estimate” value (Model 2) was 2.33 CV%. For the same compound, the “Inter-occasion variability Q2 estimate” value (Model 2) was 17.1 CV%, the “Inter-occasion variability V1 estimate” value (Model 2) was 3.87 CV% and the Q1 estimate [2] was 0.227 L/h. It also gave a Q2 estimate [2] of 5.38 L/h, a V1 estimate [2] of 8.90 L and a V2 estimate [2] of 1.57 L. The V3 estimate [2] was 4.30 L, the “Interindividual variability CLR, point estimate” value (final model, entire dataset) was 14.0 CV% and the “Interindividual variability V1, point estimate” value (final model, entire dataset) was 16.6 CV%. For the same compound, the “Interindividual variability V2, point estimate” value (final model, entire dataset) was 14.0 CV%, the “Interindividual variability V3, point estimate” value (final model, entire dataset) was 15.5 CV% and the “Interoccasion variability CLR, point estimate” value (final model, entire dataset) was 2.51 CV%. For the same compound, the “Interoccasion variability Q2, point estimate” value (final model, entire dataset) was 29.2 CV%, the “Interoccasion variability V1, point estimate” value (final model, entire dataset) was 6.23 CV% and the Q1 point estimate [3] was 0.221 L/h. The Q2 point estimate [3] was 5.84 L/h, the V1 point estimate [3] was 9.06 L and the V2 point estimate [3] was 1.56 L. The V3 point estimate [3] was 4.34 L, the “Interindividual variability CLR, bootstrap median (95% CI)” value [4] was 13.5 (5.05–20.1) CV% and the “Interindividual variability V1, bootstrap median (95% CI)” value [4] was 15.5 (6.88–23.1) CV%. For the same compound, the “Interindividual variability V2, bootstrap median (95% CI)” value [4] was 13.4 (7.81–20.7) CV%, the “Interindividual variability V3, bootstrap median (95% CI)” value [4] was 13.7 (5.57–19.2) CV% and the “Interoccasion variability CLR, bootstrap median (95% CI)” value [4] was 2.44 (0.900–3.87) CV%. The “Interoccasion variability Q2, bootstrap median (95% CI)” value [4] was 28.7 (6.99–65.8) CV%, the “Interoccasion variability V1, bootstrap median (95% CI)” value [4] was 6.06 (1.55–10.2) CV% and the “Q1 bootstrap median (95% CI)” value [4] was 0.219 (0.164–0.313) L/h. For the same compound, the “Q2 bootstrap median (95% CI)” value [4] was 5.76 (4.11–8.23) L/h, the “V1 bootstrap median (95% CI)” value [4] was 9.06 (8.18–10.1) L and the “V2 bootstrap median (95% CI)” value [4] was 1.57 (1.36–1.87) L. The “V3 bootstrap median (95% CI)” value [4] was 4.34 (3.81–4.99) L, the CL renal (human, plasma and urine, intravenous, Model 1: excluding samples within 45 minutes after the test dose for the subject with delayed absorption, read-out: CLR estimate (converted)) was 90.8 mL/min and the CL renal (human, plasma and urine, intravenous, Model 2: excluding all data from the subject with delayed absorption when receiving the test dose, read-out: CLR estimate (converted)) was 91.5 mL/min. For the same compound, the CL renal (human, plasma and urine, intravenous, final model, entire dataset, n=12, read-out: CLR point estimate (converted)) was 91.7 mL/min, the CL renal (human, plasma and urine, intravenous, final model, nonparametric bootstrap, read-out: CLR bootstrap median (95% CI) (converted)) was 91.7 mL/min and the CL renal (human, plasma and urine, intravenous, final model, read-out: Individual empirical Bayesian estimates of CLR, median (range) (converted)) was 87.5 mL/min. For the same compound, the Vd (human, plasma and urine, intravenous, final model, read-out: Individual empirical Bayesian estimates of volume of distribution (sum of V1, V2, and V3), median (range)) was 15.1 L, the “First-order absorption rate constant” value [5] was 0.876 h⁻¹ and the Relative bioavailability [5] was 93.6%.
